{"source": "patent US6426080B1", "about": "“Cosmetic preparation of active substances with high protection factor against free radicals” (Coty, B.V., priority 1998, dated 2002)", "key": {"[1]": {"conditions": "standard antioxidants, known parameter; cited from earlier work"}, "[2]": {"assay": "activity against free radicals compared with SOD", "format": "biochemical", "excerpt": "The Quebracho bark extract according to the invention or its hydrolysis product has a very high portion of proantho-cyanidines representing condensed tannins. […] The activity against free radicals was compared with that of SOD and found to be 42% for a 1 percent by weight solution of the extract (SOD 4%), 83% for a 2.5% by weight solution (SOD 15%)and 100% for a 5% by weight solution (SOD 38%). Preferably the extract (a) contains at least 95 percent by weight of proanthocyanidine oligomers and up to 5 percent by weight of gallic acid, in particular at least 99 percent by weight of proanthocyanidine oligomers and up to 1 percent by weight of gallic acid."}}}
{"compound": "Cc1c(C)c2c(c(C)c1O)CCC(C)(CCCC(C)CCCC(C)CCCC(C)C)O2", "note": "(racemic) [DL-α-tocopherol]", "values": [{"measurement": "radical protection factor (RPF)", "setting": "[1]", "value": "41200 ×10^14 radicals/mg"}]}
{"compound": "CC(=O)Oc1c(C)c(C)c2c(c1C)CCC(C)(CCC[C@H](C)CCC[C@H](C)CCCC(C)C)O2", "note": "(stereo partly shown) [a-tocopherol acetate]", "values": [{"measurement": "radical protection factor (RPF)", "setting": "[1]", "value": "about 48 ×10^14 radicals/mg"}]}
{"compound": "CC(=O)OC/C=C(C)/C=C/C=C(C)/C=C/C1=C(C)CCCC1(C)C", "note": "[all-trans retinal acetate]", "values": [{"measurement": "radical protection factor (RPF)", "setting": "[1]", "value": "196 ×10^14 radicals/mg"}]}
{"compound": "CC1=C(/C=C/C(C)=C/C=C/C(C)=C/CO)C(C)(C)CCC1", "note": "[all-trans-retinole]", "values": [{"measurement": "radical protection factor (RPF)", "setting": "[1]", "value": "827 ×10^14 radicals/mg"}]}
{"compound": "superoxide dismutase [SOD]", "values": [{"measurement": "activity against free radicals", "setting": "[2]; 1 percent by weight solution", "value": 4, "unit": "%"}, {"measurement": "activity against free radicals", "setting": "[2]; 2.5% by weight solution", "value": 15, "unit": "%"}, {"measurement": "activity against free radicals", "setting": "[2]; 5% by weight solution", "value": 38, "unit": "%"}]}
